≈ marks a conversion by molar mass, not a printed value. Where two headings read alike, the source gives them in different places. Positions of bridges follow the written chain, without caps; N, C: chain ends. Non-standard residues stand in square brackets, D forms with d. Residues, ends and D or L forms follow the SMILES beside them. *: point of attachment. Ileψ(thiazoline)Cys = CC[C@H](C)[C@H](N)C1=N[C@H](C(=O)*)CS1; dOrn = NCCC[C@@H](N)C(=O)O
Experiments:
[1] = tested on: E. coli cells transcribing antisense RNA to rplL and rplJ (AS-rplL/J); assay: microbe, parasite or virus in culture; format: cell-based; details: for IC50: Escherichia coli; for Fold Increase: IC50 without IPTG vs IC50 with 400 μM IPTG; for Sensitivity (increased sensitivity observed in the presence of IPTG): statistically significant decrease in IC50 in the presence of inducer
Protocol: Antibiotics of various chemical classes and modes of action were purchased from Sigma Chemicals (St. Louis, Mo.). Stock solutions were prepared by dissolving each antibiotic in an appropriate aqueous solution based on information provided by the manufacturer. The final working solution of each antibiotic contained no more than 0.2% (w/v) of any organic solvent. To determine their potency against a bacterial strain engineered for transcription of an antisense comprising a nucleotide sequence complementary to a proliferation-required 50S ribosomal protein, each antibiotic was serially diluted two-or three-fold in growth medium supplemented with the appropriate antibiotic for maintenance of the antisense construct. At least ten dilutions were prepared for each antibiotic. 25 μL aliquots of each dilution were transferred to discrete wells of a 384-well microplate (the assay plate) using a multi-channel pipette. Quadruplicate wells were used for each dilution of an antibiotic under each treatment condition (plus and minus inducer). Each assay plate contained twenty wells for cell growth controls (growth medium replacing antibiotic), ten wells for each treatment (plus and minus inducer, in this example IPTG). Assay plates were usually divided into the two treatments: half the plate containing induced cells and an appropriate concentrations of inducer (in this example IPTG) to maintain the state of induction, the other half containing non-induced cells in the absence of IPTG.
Cells for the assay were prepared as follows. Bacterial cells containing a construct, from which transcription of antisense nucleic acid comprising a nucleotide sequence complementary to rplL and rplJ (AS-rplL/J), which encode proliferation-required 50S ribosomal subunit proteins, is inducible in the presence of IPTG, were grown into exponential growth (OD600 0.2 to 0.3) and then diluted 1:100 into fresh medium containing either 400 μM or 0 μM inducer (IPTG). These cultures were incubated at 37° C. for 2.5 hr. After a 2.5 hr incubation, induced and non-induced cells were respectively diluted into an assay medium at a final OD600 value of 0.0004. The medium contained an appropriate concentration of the antibiotic for the maintenance of the antisense construct. In addition, the medium used to dilute induced cells was supplemented with 800 μM IPTG so that addition to the assay plate would result in a final IPTG concentration of 400 μM. Induced and non-induced cell suspensions were dispensed (25 μl/well) into the appropriate wells of the assay plate as discussed previously. The plate was then loaded into a plate reader, incubated at constant temperature, and cell growth was monitored in each well by the measurement of light scattering at 595 nm. Growth was monitored every 5 minutes until the cell culture attained a stationary growth phase. For each concentration of antibiotic, a percentage inhibition of growth was calculated at the time point corresponding to mid-exponential growth for the associated control wells (no antibiotic, plus or minus IPTG). For each antibiotic and condition (plus or minus IPTG), a plot of percent inhibition versus log of antibiotic concentration was generated and the IC50 determined.

[2] = tested on: E. coli transformed with IPTG-inducible antisense clones; assay: Cell-based assay of antibiotic sensitivity in E. coli transcribing non-stabilized antisense RNA
Excerpt: The effectiveness of the above cell-based assays in which the level or activity of a gene product required for proliferation was reduced was validated using constructs transcribing a non-stabilized antisense RNA to the proliferation required E. coli genes rplL, rplJ and rplW encoding ribosomal proteins L7/L12, L10 and L23 respectively. These proteins are essential components of the protein synthesis apparatus of the cell and as such are required for proliferation. Constructs transcribing antisense RNA to several other genes (elaD, visC, yohH, and atpE/B), the products of which are not involved in protein synthesis were used for comparison.
First, pLex5BA (Krause et al., J. Mol. Biol. 274: 365 (1997), the disclosure of which is incorporated herein by reference in its entirety) vectors containing antisense constructs to either rplW or to elaD were introduced into separate E. coli cell populations. […]
The cell populations containing vectors producing AS-elaD or AS-rplW were exposed to a range of IPTG concentrations in liquid medium to obtain the growth inhibitory dose curve for each clone (FIG. 5). First, seed cultures were grown to a particular turbidity measured by the optical density (OD) of the growth solution. […] The cells were grown for up to 15 hours and the extent of growth was determined by measuring the optical density of the cultures at 600 nm. […]

| Compound | Fold Increase [1] | Sensitivity (increased sensitivity observed in the presence of IPTG) [1] | other results |
| --- | --- | --- | --- |
| CN[C@H](CC(C)C)C(=O)N[C@H]1C(=O)N[C@@H](CC(N)=O)C(=O)N[C@H]2C(=O)N[C@H]3C(=O)N[C@H](C(=O)N[C@H](C(=O)O)c4cc(O)cc(O)c4-c4cc3ccc4O)[C@H](O)c3ccc(c(Cl)c3)Oc3cc2cc(c3O[C@@H]2O[C@H](CO)[C@@H](O)[C@H](O)[C@H]2O[C@H]2C[C@](C)(N)[C@H](O)[C@H](C)O2)Oc2ccc(cc2Cl)[C@H]1O [Vancomycin] | 2 | No | IC50 ([1]; read-out: IC50 (+IPTG)): 72.5 µg/mL (≈ 50.1 µM); IC50 ([1]; read-out: IC50 (−IPTG)): 145 µg/mL (≈ 100 µM) |
| CC[C@H](C)[C@H](N)C1=N[C@H](C(=O)N[C@@H](CC(C)C)C(=O)N[C@H](CCC(=O)O)C(=O)N[C@H](C(=O)N[C@H]2CCCCNC(=O)[C@H](CC(N)=O)NC(=O)[C@@H](CC(=O)O)NC(=O)[C@H](Cc3cnc[nH]3)NC(=O)[C@@H](Cc3ccccc3)NC(=O)[C@H]([C@@H](C)CC)NC(=O)[C@@H](CCCN)NC2=O)[C@@H](C)CC)CS1 [Bacitracin] ({Ileψ(thiazoline)Cys}-L[dE]IK[dOrn]I[dF]H[dD]N; lactam 4-C) | 1 | No | IC50 ([1]; read-out: IC50 (+IPTG)): 4.68 µg/mL (≈ 3.29 µM); IC50 ([1]; read-out: IC50 (−IPTG)): 4.08 µg/mL (≈ 2.87 µM) |
| CN(C)[C@@H]1C(O)=C(C(N)=O)C(=O)[C@@]2(O)C(O)=C3C(=O)c4c(O)cccc4[C@@](C)(O)[C@H]3C[C@@H]12 [Tetracycline] | 109 | – | – |
| C[C@H]1c2cccc(O)c2C(=O)C2=C(O)[C@]3(O)C(=O)C(C(N)=O)=C(O)[C@@H](N(C)C)[C@@H]3[C@@H](O)[C@@H]21 [Doxycycline] | 15 | – | – |
| CC[C@H]1OC(=O)[C@H](C)[C@@H](O[C@H]2C[C@@](C)(OC)[C@@H](O)[C@H](C)O2)[C@H](C)[C@@H](O[C@@H]2O[C@H](C)C[C@H](N(C)C)[C@H]2O)[C@](C)(O)C[C@@H](C)C(=O)[C@H](C)[C@@H](O)[C@]1(C)O [Erythromycin] | 40 | Yes | sensitivity of clones to the antibiotic ([2]; clones transcribing antisense to protein synthesis genes (L7/L12 & L10, L7/L12, L22, L18, rRNA, Elongation Factor G), initial experiments): increased sensitivity |
| CCn1cc(C(=O)O)c(=O)c2ccc(C)nc21 [Nalidixic acid] | 1 | No | sensitivity of clone to the antibiotic ([2]; clone transcribing antisense to rplL and rplJ (AS-rplL/J)): does not show increased sensitivity |
| Gentamicin | 141 | Yes | IC50 (+IPTG) ([1]; induced AS-rplL/J cells, 400 μM IPTG): 0.01919 µg/mL; IC50 (−IPTG) ([1]; non-induced AS-rplL/J cells, 0 μM IPTG): 2.715 µg/mL |
| CO/N=C(\C(=O)N[C@@H]1C(=O)N2C(C(=O)O)=C(COC(C)=O)CS[C@H]12)c1csc(N)n1 [Cefotaxime] | 1 | No | – |
| [H]/N=C(/N)N[C@H]1[C@H](O)[C@@H](O)[C@H](O[C@@H]2O[C@@H](C)[C@](O)(C=O)[C@H]2O[C@@H]2O[C@@H](CO)[C@H](O)[C@@H](O)[C@@H]2NC)[C@@H](N/C(N)=N\[H])[C@@H]1O [Streptomycin] | 70 | Yes | – |
| CN(C)c1ccc(O)c2c1C[C@H]1C[C@H]3[C@H](N(C)C)C(O)=C(C(N)=O)C(=O)[C@@]3(O)C(O)=C1C2=O [Minocycline] | 172 | – | – |
| O=C(N[C@H](CO)[C@H](O)c1ccc([N+](=O)[O-])cc1)C(Cl)Cl [Chloramphenicol] | 307 | Yes | – |
| CC1COc2c(N3CCN(C)CC3)c(F)cc3c(=O)c(C(=O)O)cn1c23 (centres unmarked) [Ofloxacin] | 1 | – | – |
| CO[C@@]1(NC(=O)Cc2cccs2)C(=O)N2C(C(=O)O)=C(COC(N)=O)CS[C@@H]21 [Cefoxitin] | 1 | No | – |
| CCC[C@@H]1C[C@@H](C(=O)N[C@@H]([C@H]2O[C@H](SC)[C@H](O)[C@@H](O)[C@H]2O)[C@@H](C)O)N(C)C1 [Lincomycin] | 145 | Yes | – |
| NC[C@H]1O[C@H](O[C@H]2[C@H](O)[C@@H](O[C@H]3O[C@H](CO)[C@@H](O)[C@H](N)[C@H]3O)[C@H](N)C[C@@H]2N)[C@H](N)C[C@@H]1O [Tobramycin] | 51 | Yes | – |
| CN[C@@H]1[C@H](O)[C@H](NC)[C@H]2O[C@@]3(O)C(=O)C[C@@H](C)O[C@H]3O[C@@H]2[C@H]1O [Spectinomycin] | – | Yes | IC50 ([1]; read-out: IC50 (+IPTG)): < 0.156 µg/mL |
| CC(=O)O[C@H]1C[C@@]2(C)[C@@H](C[C@@H](O)[C@H]3[C@@]4(C)CC[C@@H](O)[C@@H](C)[C@@H]4CC[C@@]32C)/C1=C(\CCC=C(C)C)C(=O)O [Fusidic acid] | 94 | Yes | – |
